Tests used:
Assay type in all cases: in vivo
[1] = system: upland rice (Oryza sp., var. Tebonnet, RICE); test: Pre-emerge test, crop safety; settings: for phytotoxicity rating RICE: rating scale 0-100
Summary of the method: (§1)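 Compounds in acetone were track-sprayed at 187 l/ha, 15–1000 g ai/ha, onto sandy loam pots. Pre-emerge seeds were sown one day before spraying, with surface watering afterwards. Post-emerge plants were at the 2–3 leaf stage and sprayed with 0.25% v/v non-ionic surfactant. Injury was rated 0–100 at 14 days.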

[2] = system: field corn (Zea mays L., var. Dekalb 535, CORN); test: Pre-emerge test, crop safety; settings: for phytotoxicity rating CORN: rating scale 0-100
Summary of the method: as §1

[3] = system: upland rice (Oryza sp., var. Tebonnet, RICE); test: Post-emerge test, crop safety; settings: post-emerge, 14 days after application, rating scale 0-100
Summary of the method: (§2)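 Visual ratings on a 0-100 scale (0 no damage, 100 all plants dead) were taken at 14 days after treatment. Rates of 15-1000 g ai/ha in acetone, 187 l/ha, were sprayed onto soil one day after planting (pre-emerge) or onto 2-3 leaf plants with 0.25% v/v surfactant (post-emerge).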

[4] = system: field corn (Zea mays L., var. Dekalb 535, CORN); test: Post-emerge test, crop safety; settings: post-emerge, 14 days after application, rating scale 0-100
Summary of the method: as §2

[5] = system: redroot pigweed (Amaranthus retroflexus, AMARE); test: Pre-emerge test, greenhouse herbicide activity screening; settings: for phytotoxicity rating AMARE: pre-emerge, 14 days after application
Summary of the method: as §1

[6] = system: barnyardgrass (Echinochloa crus-galli, ECHCG); test: as above; settings: for phytotoxicity rating ECHCG: pre-emerge, 14 days after application
Summary of the method: as §2

[7] = system: large crabgrass (Digitaria sanguinalis, DIGSA); test: as above; settings: for phytotoxicity rating DIGSA: pre-emerge, 14 days after application
Summary of the method: as §2

[8] = system: ivyleaf morningglory (Ipomoea hederacea, IPOHE); test: as above; settings: for phytotoxicity rating IPOHE: pre-emerge, 14 days after application
Summary of the method: as §2

[9] = system: green foxtail (Setaria viridis, SETVI); test: as above; settings: for phytotoxicity rating SETVI: pre-emerge, 14 days after application
Summary of the method: as §2

[10] = system: lambsquarters (Chenopodium album, CHEAL); test: as above; settings: for phytotoxicity rating CHEAL: pre-emerge, 14 days after application
Summary of the method: as §2

[11] = system: sicklepod (Cassia obtusifolia, CASOB); test: as above; settings: for phytotoxicity rating CASOB: pre-emerge, 14 days after application
Summary of the method: as §2

[12] = system: velvetleaf (Abutilon theophrasti, ABUTH); test: as above; settings: for phytotoxicity rating ABUTH: pre-emerge, 14 days after application
Summary of the method: as §2

[13] = system: johnsongrass (Sorghum halepense, SORHA); test: as above; settings: for phytotoxicity rating SORHA: pre-emerge, 14 days after application
Summary of the method: as §2

[14] = system: redroot pigweed (Amaranthus retroflexus, AMARE); test: Post-emerge test, greenhouse herbicide activity screening; settings: post-emerge, 14 days after application
Summary of the method: as §1

[15] = system: barnyardgrass (Echinochloa crus-galli, ECHCG); test: as above; settings: post-emerge, 14 days after application, rating scale 0-100
Summary of the method: as §1

[16] = system: large crabgrass (Digitaria sanguinalis, DIGSA); test: as above; settings: post-emerge, 14 days after application, rating scale 0-100
Summary of the method: as §1

[17] = system: ivyleaf morningglory (Ipomoea hederacea, IPOHE); test: as above; settings: post-emerge, 14 days after application, rating scale 0-100
Summary of the method: as §1

[18] = system: green foxtail (Setaria viridis, SETVI); test: as above; settings: post-emerge, 14 days after application, rating scale 0-100
Summary of the method: as §1

[19] = system: lambsquarters (Chenopodium album, CHEAL); test: as above; settings: post-emerge, 14 days after application, rating scale 0-100
Summary of the method: as §1

[20] = system: sicklepod (Cassia obtusifolia, CASOB); test: as above; settings: post-emerge, 14 days after application, rating scale 0-100
Summary of the method: as §1

[21] = system: velvetleaf (Abutilon theophrasti, ABUTH); test: as above; settings: post-emerge, 14 days after application, rating scale 0-100
Summary of the method: as §1

[22] = 250 g ai/ha, crop damage rating 0-100, 14 days after application
[23] = pre-emerge, 63 g ai/ha, 14 days after application, scale 0-100
[24] = 250 g ai/ha, phytotoxicity rating 0-100, 14 days after application
[25] = 250 g ai/ha, rating scale 0-100
[26] = pre-emerge, 63 g ai/ha, 14 days after application
[27] = pre-emerge, 250 g ai/ha, 14 days after application

N#CCOc1c(Cl)cc(F)c(-n2c(=O)cc(C(F)(F)F)n(N)c2=O)c1NC(=O)c1ccc2ccccc2c1 [2-188]
Pre-emerge Herbicidal Activity RICE [1, 22]: 10 | phytotoxicity rating RICE (crop damage) [1, 23]: 10 | Pre-emerge Herbicidal Activity CORN [2, 22]: 0 | phytotoxicity rating CORN (crop damage) [2, 23]: 0 | RICE phytotoxicity rating (crop damage) ([3]; 63 g ai/ha): 20 | RICE phytotoxicity rating (crop damage) ([3]; 250 g ai/ha): 40 | CORN phytotoxicity rating (crop damage) ([4]; 63 g ai/ha): 25 | CORN phytotoxicity rating (crop damage) ([4]; 250 g ai/ha): 45 | Pre-emerge Herbicidal Activity AMARE [5, 24]: 80 | phytotoxicity rating AMARE ([5]; 63 g ai/ha, scale 0-100): 100 | Pre-emerge Herbicidal Activity ECHCG [6, 24]: 60 | phytotoxicity rating ECHCG ([6]; 63 g ai/ha, scale 0-100): 30 | Pre-emerge Herbicidal Activity DIGSA [7, 24]: 60 | phytotoxicity rating DIGSA ([7]; 63 g ai/ha, scale 0-100): 10 | Pre-emerge Herbicidal Activity IPOHE [8, 24]: 90 | phytotoxicity rating IPOHE ([8]; 63 g ai/ha, scale 0-100): 10 | Pre-emerge Herbicidal Activity SETVI [9, 24]: 50 | phytotoxicity rating SETVI ([9]; 63 g ai/ha, scale 0-100): 30 | Pre-emerge Herbicidal Activity CHEAL [10, 24]: 100 | phytotoxicity rating CHEAL ([10]; 63 g ai/ha, scale 0-100): 100 | Pre-emerge Herbicidal Activity CASOB [11, 24]: 0 | phytotoxicity rating CASOB ([11]; 63 g ai/ha, scale 0-100): 0 | Pre-emerge Herbicidal Activity ABUTH [12, 24]: 100 | phytotoxicity rating ABUTH ([12]; 63 g ai/ha, scale 0-100): 90 | Pre-emerge Herbicidal Activity SORHA [13, 24]: 30 | phytotoxicity rating SORHA ([13]; 63 g ai/ha, scale 0-100): 10 | AMARE phytotoxicity rating ([14]; 63 g ai/ha, rating scale 0-100): 85 | AMARE phytotoxicity rating [14, 25]: 90 | ECHCG phytotoxicity rating ([15]; 63 g ai/ha): 30 | ECHCG phytotoxicity rating ([15]; 250 g ai/ha): 40 | DIGSA phytotoxicity rating ([16]; 63 g ai/ha): 0 | DIGSA phytotoxicity rating ([16]; 250 g ai/ha): 10 | IPOHE phytotoxicity rating ([17]; 63 g ai/ha): 100 | IPOHE phytotoxicity rating ([17]; 250 g ai/ha): 100 | SETVI phytotoxicity rating ([18]; 63 g ai/ha): 10 | SETVI phytotoxicity rating ([18]; 250 g ai/ha): 20 | CHEAL phytotoxicity rating ([19]; 63 g ai/ha): 80 | CHEAL phytotoxicity rating ([19]; 250 g ai/ha): 100 | CASOB phytotoxicity rating ([20]; 63 g ai/ha): 55 | CASOB phytotoxicity rating ([20]; 250 g ai/ha): 90 | ABUTH phytotoxicity rating ([21]; 63 g ai/ha): 100 | ABUTH phytotoxicity rating ([21]; 250 g ai/ha): 100

COc1c(Cl)cc(F)c(-n2c(=O)cc(C(F)(F)F)n(C)c2=O)c1NNC(=O)Oc1ccccc1 [15-7]
phytotoxicity rating RICE [1, 26]: 90 | phytotoxicity rating RICE [1, 27]: 100 | phytotoxicity rating CORN [2, 26]: 85 | phytotoxicity rating CORN [2, 27]: 100 | Post-emerge Herbicidal Activity RICE (crop damage rating) ([3]; 63 g ai/ha): 50 | Post-emerge Herbicidal Activity RICE (crop damage rating) ([3]; 250 g ai/ha): 90 | Post-emerge Herbicidal Activity CORN (crop damage rating) ([4]; 63 g ai/ha): 60 | Post-emerge Herbicidal Activity CORN (crop damage rating) ([4]; 250 g ai/ha): 80 | phytotoxicity rating AMARE ([5]; 63 g ai/ha, rating scale 0-100): 100 | phytotoxicity rating AMARE [5, 25]: 100 | phytotoxicity rating ECHCG ([6]; 63 g ai/ha, rating scale 0-100): 80 | phytotoxicity rating ECHCG [6, 25]: 100 | phytotoxicity rating DIGSA ([7]; 63 g ai/ha, rating scale 0-100): 90 | phytotoxicity rating DIGSA [7, 25]: 100 | phytotoxicity rating IPOHE ([8]; 63 g ai/ha, rating scale 0-100): 95 | phytotoxicity rating IPOHE [8, 25]: 100 | phytotoxicity rating SETVI ([9]; 63 g ai/ha, rating scale 0-100): 100 | phytotoxicity rating SETVI [9, 25]: 100 | phytotoxicity rating CHEAL ([10]; 63 g ai/ha, rating scale 0-100): 100 | phytotoxicity rating CHEAL [10, 25]: 100 | phytotoxicity rating CASOB ([11]; 63 g ai/ha, rating scale 0-100): 100 | phytotoxicity rating CASOB [11, 25]: 100 | phytotoxicity rating ABUTH ([12]; 63 g ai/ha, rating scale 0-100): 100 | phytotoxicity rating ABUTH [12, 25]: 100 | phytotoxicity rating SORHA ([13]; 63 g ai/ha, rating scale 0-100): 95 | phytotoxicity rating SORHA [13, 25]: 100 | Post-emerge Herbicidal Activity AMARE (phytotoxicity rating) ([14]; 63 g ai/ha, rating scale 0-100 (0 no damage, 100 complete death)): 100 | Post-emerge Herbicidal Activity AMARE (phytotoxicity rating) [14, 25]: 100 | Post-emerge Herbicidal Activity ECHCG (phytotoxicity rating) ([15]; 63 g ai/ha): 40 | Post-emerge Herbicidal Activity ECHCG (phytotoxicity rating) ([15]; 250 g ai/ha): 95 | Post-emerge Herbicidal Activity DIGSA (phytotoxicity rating) ([16]; 63 g ai/ha): 20 | Post-emerge Herbicidal Activity DIGSA (phytotoxicity rating) ([16]; 250 g ai/ha): 75 | Post-emerge Herbicidal Activity IPOHE (phytotoxicity rating) ([17]; 63 g ai/ha): 100 | Post-emerge Herbicidal Activity IPOHE (phytotoxicity rating) ([17]; 250 g ai/ha): 100 | Post-emerge Herbicidal Activity SETVI (phytotoxicity rating) ([18]; 63 g ai/ha): 30 | Post-emerge Herbicidal Activity SETVI (phytotoxicity rating) ([18]; 250 g ai/ha): 90 | Post-emerge Herbicidal Activity CHEAL (phytotoxicity rating) ([19]; 63 g ai/ha): 100 | Post-emerge Herbicidal Activity CHEAL (phytotoxicity rating) ([19]; 250 g ai/ha): 100 | Post-emerge Herbicidal Activity CASOB (phytotoxicity rating) ([20]; 63 g ai/ha): 60 | Post-emerge Herbicidal Activity CASOB (phytotoxicity rating) ([20]; 250 g ai/ha): 100 | Post-emerge Herbicidal Activity ABUTH (phytotoxicity rating) ([21]; 63 g ai/ha): 100 | Post-emerge Herbicidal Activity ABUTH (phytotoxicity rating) ([21]; 250 g ai/ha): 100

Reference: patent publication US6355799B1, “Substituted benzene compounds, process for their preparation, and herbicidal and defoliant compositions containing them” (ISK Americas Incorporated, priority 1997, dated 2002)
